The record followed here is BindingDB's records for patent US9670191 (Nerviano Medical Sciences, 2017).

For orientation: IC50 means the point on the concentration scale where inhibition reaches its midpoint. A high value points to weaker potency.

Molecules are shown by their SMILES. Bounds are passed on as bounds.

In the test the target is T1, Cell division cycle 7-related protein kinase [58-574]/Protein DBF4 homolog A (Homo sapiens, UniProt O00311).
T1 construct: 58-574
Description: Inhibition Assay of Cdc7 Activity. The procedure:
The assay consists of the transfer of radioactivity labeled phosphate moiety by the kinase to an acceptor substrate. The resulting 33P-labeled product is separated from unreacted tracer, transferred into a scintillation cocktail and light emitted is measured in a scintillation counter. The inhibition assay of Cdc7/Dbf4 activity is performed according to the following protocol. The MCM2 substrate is trans-phosphorylated by the Cdc7/Dbf4 complex in the presence of ATP traced with γ33-ATP. The reaction is stopped by addition of Dowex resin in the presence of formic acid. Dowex resin particles capture unreacted γ33-ATP and drag it to the bottom of the well while 33P phosphorylated MCM2 substrate remains in solution. The supernatant is collected, transferred into Optiplate plates and the extent of substrate phosphorylation is evaluated by β counting. The inhibition assay of Cdc7/Dbf4 activity was performed in 96 wells plate according to the following protocol.

T1 sequence (O00311 58-574): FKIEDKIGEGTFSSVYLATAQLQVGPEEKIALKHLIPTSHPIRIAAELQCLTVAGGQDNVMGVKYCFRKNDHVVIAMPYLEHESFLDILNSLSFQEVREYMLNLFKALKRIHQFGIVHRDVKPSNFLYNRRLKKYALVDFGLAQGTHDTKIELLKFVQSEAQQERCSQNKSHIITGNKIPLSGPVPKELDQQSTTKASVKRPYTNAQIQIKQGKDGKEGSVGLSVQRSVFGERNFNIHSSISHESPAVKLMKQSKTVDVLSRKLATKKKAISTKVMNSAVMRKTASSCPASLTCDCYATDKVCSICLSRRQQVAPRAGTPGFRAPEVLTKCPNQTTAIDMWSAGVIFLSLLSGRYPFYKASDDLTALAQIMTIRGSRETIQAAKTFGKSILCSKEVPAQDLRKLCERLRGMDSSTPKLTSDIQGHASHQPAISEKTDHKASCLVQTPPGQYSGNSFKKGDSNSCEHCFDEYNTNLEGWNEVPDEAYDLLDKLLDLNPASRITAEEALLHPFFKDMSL
T1 sequence (Q9UBU7 whole entry, further chain): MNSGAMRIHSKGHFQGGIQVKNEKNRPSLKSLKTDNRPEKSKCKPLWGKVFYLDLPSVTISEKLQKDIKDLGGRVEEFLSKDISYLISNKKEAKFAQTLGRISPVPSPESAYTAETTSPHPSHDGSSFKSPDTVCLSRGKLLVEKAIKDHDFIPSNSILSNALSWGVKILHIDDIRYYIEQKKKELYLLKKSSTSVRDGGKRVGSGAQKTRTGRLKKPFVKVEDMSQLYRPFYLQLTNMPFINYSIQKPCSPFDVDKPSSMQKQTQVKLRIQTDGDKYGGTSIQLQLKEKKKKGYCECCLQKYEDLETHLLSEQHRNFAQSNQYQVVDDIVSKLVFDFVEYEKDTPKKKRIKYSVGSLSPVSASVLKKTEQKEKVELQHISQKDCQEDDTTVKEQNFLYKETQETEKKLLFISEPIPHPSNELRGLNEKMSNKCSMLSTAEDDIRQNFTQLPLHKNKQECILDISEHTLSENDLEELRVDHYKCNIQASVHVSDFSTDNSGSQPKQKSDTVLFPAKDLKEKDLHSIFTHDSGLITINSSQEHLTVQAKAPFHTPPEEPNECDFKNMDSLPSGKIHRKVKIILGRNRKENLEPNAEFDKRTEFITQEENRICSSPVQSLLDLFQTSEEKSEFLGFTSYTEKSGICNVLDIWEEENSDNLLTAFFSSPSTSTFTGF

For the molecule `CC(C)(C)OC(=O)N1CCC(c2[nH]c(-c3ccncc3)cc2C(N)=O)CC1` [US9670191, Q2], the IC50 is under 1000 nM.

As for `NC(=O)c1c[nH]c(-c2ccncc2)c1` [US9670191, P1], the IC50 is under 1000 nM.

Regarding `NC(=O)c1cc(-c2ccncc2)[nH]c1-c1ccncc1` [US9670191, C3], the IC50 was under 1000 nM.

For the molecule `NC(=O)c1cc(-c2ccnc(N)n2)[nH]c1-c1ccc2sccc2c1` [US9670191, G15], the IC50 was under 1000 nM.

In turn, `NC(=O)c1cc(-c2ccncc2)[nH]c1Br` [US9670191, R1] returned a concentration for half-maximal inhibition (IC50) of under 1000 nM.

Take `NC(=O)c1cc(-c2ccncc2)[nH]c1-c1ccc([N+](=O)[O-])cc1` [US9670191, A15]: the IC50 was under 1000 nM.

In turn, `NC(=O)c1cc(-c2ccnc(N)n2)[nH]c1-c1cccs1` [US9670191, G2] came in with an IC50 of under 1000 nM.

The molecule `NC(=O)c1cc(-c2ccncc2)[nH]c1C1CCCCC1` [US9670191, Q1] yielded an IC50 of under 1000 nM.

In turn, `NC(=O)c1cc(-c2ccnc(N)n2)sc1-c1ccccc1` [US9670191, S1] yielded an IC50 of under 1000 nM.

`NC(=O)c1cc(-c2ccnc(N)n2)oc1-c1ccccc1` [US9670191, T1] showed a half-maximal inhibitory concentration (IC50) of under 1000 nM.

`NC(=O)c1c(-c2ccccc2)[nH]c(-c2ccnc(N)n2)c1Cl` [US9670191, Z1] returned an IC50 of under 1000 nM.

Consider `CNC(=O)c1cc(-c2ccnc(N)n2)[nH]c1-c1ccccc1` [US9670191, M1], for which the IC50 was under 1000 nM.

The molecule `NC(=O)c1cc(-c2ccncc2)[nH]c1-c1cccc([N+](=O)[O-])c1` [US9670191, A14] yielded an IC50 of under 1000 nM.

For the molecule `NC(=O)c1cc(-c2nc(N)ncc2F)[nH]c1-c1ccccc1` [US9670191, V1], the IC50 was under 1000 nM.

Turning to `Cn1cc(-c2[nH]c(-c3ccnc(N)n3)cc2C(N)=O)c2ccccc21` [US9670191, G13], the IC50 was under 1000 nM.

Take `NC(=O)c1cc(-c2ccncc2)[nH]c1-c1ccccc1[N+](=O)[O-]` [US9670191, A13]: the IC50 is under 1000 nM.

`Cn1c(-c2[nH]c(-c3ccnc(N)n3)cc2C(N)=O)cc2ccccc21` [US9670191, G14] yielded an IC50 of under 1000 nM.

In the case of `N#Cc1cccc(-c2[nH]c(-c3ccncc3)cc2C(N)=O)c1` [US9670191, A23], the IC50 is under 1000 nM.

Molecule `NC(=O)c1cc(-c2ccnc(N)n2)[nH]c1-c1csc2ccccc12` [US9670191, G6] showed an IC50 of under 1000 nM.

In turn, `NC(=O)c1cc(-c2ccnc(N)n2)[nH]c1-c1cccc2ccccc12` [US9670191, F5] gave an IC50 of under 1000 nM.

`NC(=O)c1cc(-c2ccnc(N)n2)[nH]c1-c1ccccn1` [US9670191, G12] yielded an IC50 of under 1000 nM.

Turning to `NC(=O)c1cc(-c2ccnc(N)n2)[nH]c1-c1ccc2ccccc2c1` [US9670191, F6], the half-inhibitory concentration (IC50) was under 1000 nM.

Take `C=Cc1c(-c2ccnc(N)n2)[nH]c(-c2ccccc2)c1C(N)=O` [US9670191, O1]: the IC50 was under 1000 nM.

On to `NC(=O)c1cc(-c2ccnc(N)n2)[nH]c1-c1cc2ccccc2s1` [US9670191, G5], for which the IC50 was under 1000 nM.

Consider `NC(=O)c1cc(-c2ccncc2)[nH]c1C1CCNCC1` [US9670191, Q3], for which the IC50 is under 1000 nM.

Molecule `NC(=O)c1cc(-c2ccnc(N)n2)[nH]c1-c1cc2ccccc2o1` [US9670191, G9] yielded an IC50 of under 1000 nM.

`NC(=O)c1c(-c2ccccc2)[nH]c(-c2ccnc(N)n2)c1I` [US9670191, N3] showed an IC50 of under 1000 nM.
